Experimental findings from patent US10316041B2, “Spiro-lactam NMDA receptor modulators and uses thereof” (Apytinyx Inc., priority 2013, dated 2019) are described below.

For test [1], the system named is Schaffer collateral-CA1 synapses in hippocampal slices. The experiment in a line: Long term potentiation in hippocampal slices. It counts as cell-based, rat. Here is the method:
Assays were conducted as described in Zhang et al. (Zhang, X. L., Sullivan, J. A., Moskal, J. R., Stanton, P. K., 2008. A NMDA receptor glycine site partial agonist, GLYX-13, simultaneously enhances LTP and reduces LTD at Schaffer collateral-CA1 synapses in hippocampus. Neuropharmacology. 55, 1238-50) Sprague-Dawley rats (12-18 days old; Taconic Farms) were deeply anesthetized with isoflurane and decapitated. Rat brains were removed rapidly, submerged in ice-cold artificial cerebrospinal fluid (ACSF, 2-4° C.), which contained (in mM): 124 NaCl, 4 KCl, 2 MgSO4, 2 CaCl2, 1.25 NaH2PO4, 26 NaHCO3, 10 glucose; at pH 7.4, gassed continuously with 95% O2/5% CO2). The rat brains were hemisected, the frontal lobes cut off, and individual hemispheres glued using cyanoacrylate adhesive onto a stage immersed in ice-cold ACSF gassed continuously with 95% O2/5% CO2 during slicing. Coronal slices (400 μm thick) were cut using a Vibratome (Leica VT1200S), and transferred to an interface holding chamber for incubation at room temperature for a minimum of one hour before transferring to a Haas-style interface recording chamber continuously perfused at 3 ml/min with oxygenated ACSF at 32±0.5° C. […] A bipolar stainless steel stimulating electrode (FHC Co.) was placed on Schaffer collateral-commissural fibers in CA3 stratum radiatum, and constant current stimulus intensity adjusted to evoke approximately half-maximal fEPSPs once each 30 s ([…]; 100 μs duration). fEPSP slope was measured before and after induction of LTP by linear interpolation from 20 to 80% of maximum negative deflection, and slopes confirmed to be stable to within ±10% for at least 15 min before commencing an experiment. […] The signals were recorded using a Multiclamp 700B amplifier and digitized with a Digidata 1322 (Axon Instruments, USA). Data were analyzed using pClamp software (version 9, Axon Instruments) on an IBM-compatible personal computer.

A short description of test [2]: Porsolt test (floating time). It counts as in vivo. As to conditions: 3 mg/kg, IV, 1 hour post dose.
Test [3] addresses T1, NMDA receptor (rat cortical membranes) (Rattus norvegicus, UniProt P35439).
T1 construct: from tissue; host or cells: rat cerebral cortex membranes
The experiment in a line: [3H]MK-801 binding assay (potentiation of binding). As to conditions: for Activity (%): maximal activity, % maximal stimulation (1 mM glycine). As to the method:
Assays were conducted as described in Moskal et al. (Moskal, J. R., Kuo, A. G., Weiss, C., Wood, P. L., O'Connor Hanson, A., Kelso, S., Harris, R. B., Disterhoft, J. F., 2005. GLYX-13: a monoclonal antibody-derived peptide that acts as an N-methyl-D-aspartate receptor modulator. Neuropharmacology. 49, 1077-87) The potentiation of [^3H]MK-801 binding (5 nM; 22.5 Ci/mmol) to well washed rat cortical membranes (200 μg) was measured under non-equilibrium conditions (15 min @ 25° C.) in the presence of increasing concentrations of test compounds and 50 μM glutamate. Zero levels were determined in the absence of any glycine ligand and in the presence of 30 μM 5.7 DCKA. Maximal stimulation was measured in the presence of 1 mM glycine, and 50 μM glutamate was present in all samples. The facilitation of [^3H]MK-801 binding by tests compounds was calculated by using a 3 parameter log agonist vs. response equation (Graph pad Prism, USA) and potency (EC50 expressed in pM) and maximal activity (% maximal stimulation) were calculated for the test compound.

The mark [4] stands for this setting: read-out: [3H] MK-801 binding assay: EC50.
Setting [5] is: potentiation of [3H]MK-801 binding, 50 μM glutamate, rat cortical membranes, read-out: pEC50 (converted).

Like-named read-outs stand apart in the source and are kept apart here.

On to `CC(=O)N1CCCC12CN(CC(=O)N[C@H](C(N)=O)[C@@H](C)O)C2=O` (single isomer, unassigned) [Compound 6S-FNL-7-F2], for which the “Unified Activity Data: LTP Augmentation (Percent)” value in test [1] (LTP Concentration 1 uM) came out at 150%. Further, in test [2], the “Unified Activity Data: Porsolt Floating Time Inhibition (Percent)” value is listed as 80%.
In the case of `C[C@@H](O)[C@H](NC(=O)CN1CC2(CCCN2C(=O)OCc2ccccc2)C1=O)C(N)=O` (stereo in doubt) [Compound 6S-FNL-4, Benzyl 2-(2-((1-amino-3-hydroxy-1-oxobutan-2-yl)amino)-2-oxoethyl)-1-oxo-2,5-diazaspiro [3.4] octane-5-carboxylate], the EC50 in test [3] (setting [4]) was over 10000 nM.
For `CC(=O)O[C@H](C)[C@H](NC(=O)CN1CC2(CCCN2)C1=O)C(N)=O` (stereo partly drawn) [Compound 6S-FNL-3, (2R, 3S)-4-amino-4-oxo-3-(2-(1-oxo-2,5-diazaspiro [3.4]octan-2-yl)acetamido) butan-2-yl acetate], the EC50 in test [3] (setting [4]) amounted to 1690 nM.
Consider `C[C@@H](O)[C@H](NC(=O)CN1CC2(CCCN2C(=O)c2ncnn2C)C1=O)C(N)=O` (stereo partly drawn) [Compound C, (2S,3R)-3-hydroxy-2-(2-(5-(1-methyl-1H-1,2,4-triazole-5-carbonyl)-1-oxo-2,5-diazaspiro[3.4]octan-2-yl)acetamido) butanamide], for which, in test [3], the “Activity (%)” value is 10%. In addition, in test [3] (setting [5]), the EC50 was 0.007 nM.
Turning to `C[C@@H](O)[C@H](NC(=O)CN1CC2(CCCN2C(=O)c2ncnn2C)C1=O)C(=O)N1CCCC1` (stereo partly drawn) [Compound D, N-((2S, 3R)-3-hydroxy-1-oxo-1-(pyrrolidin-1-yl)butan-2-yl)-2-(5-(1-methyl-1H-1,2,4-triazole-5-carbonyl)-1-oxo-2,5-diazaspiro[3.4]octan-2-yl) acetamide], in test [3], the “Activity (%)” value is on record as 5%. Besides, the EC50 in test [3] (setting [5]) is 0.159 nM.
The like results for `CC(=O)N1CCCC12CN(CC(=O)N[C@H](C(N)=O)[C@@H](C)O)C2=O` (stereo partly drawn) [Compound H, (2S,3R)-2-(2-(5-acetyl-1-oxo-2,5-diazaspiro[3.4]octan-2-yl)acetamido)-3-hydroxy butanamide] were, in that order, 20% and 0.195 nM.
For “(2R, 3S)-4-amino-3-(2-(5-(1-benzyl-5-methyl-1H-1, 2, 3-triazole-4-carbonyl)-1-oxo-2, 5-diazaspiro [3.4] octan-2-yl) acetamido)-4-oxobutan-2-yl acetate [Compound B]”, in test [3], the “Activity (%)” value stood at 47%. The EC50 in test [3] (setting [5]) was 0.006 nM; in test [3] (setting [4]), 0.00727 nM. In test [1] (LTP Concentration 0.1 uM), the “Unified Activity Data: LTP Augmentation (Percent)” value is recorded as 110%. Besides, the “long-term potentiation after high frequency stimulation of Schaffer collateral-evoked NMDA e.p.s.c.s in CA1 pyramidal neurons” value in test [1] (tested at 0.11 μM, FIG. 5) was “increased long-term potentiation”. For the same molecule, in test [2], the “Unified Activity Data: Porsolt Floating Time Inhibition (Percent)” value is 86%.
